The data set in a line: Bidirectional Caco-2 permeability assay. The class given is in vitro ADME. Conditions: human, Caco-2. As for the experimental part:
The bidirectional permeability of compounds across the Caco-2 cell monolayer was assessed. The Caco-2 model is a widely used in vitro model for small intestinal absorption and potential for efflux. Cell culture. Caco-2 cells were grown in DMEM supplemented with 10% fetal bovine serum (FBS), 1% Penicillin-Streptomycin and 1% MEMNEAA. The cells were incubated at 37° C., 5% CO2/95% air and saturated humidity. After reaching 80-90% confluency, the cells were gently detached with trypsin. Cells at passage 39 were seeded on the 24-well BD insert system at the density of 8×10^4 cells/cm^2 and cultured for 19 days with medium changed every 2-3 days. Measure the transepithelial electrical resistance (TEER) value of each well. The wells can be used only when their TEER values are greater than 600 Ohms/cm^2.
Transport assay. After removing the cell culture medium from the 24-well insert plate, the cells were rinsed with warm transport buffer. Appropriate dosing and receiving solutions were applied to the donor and receiver chambers to initiate the transport assay in apical to basolateral (A to B) or basolateral to apical (B to A) directions (500 and 1300 μL for apical and basolateral wells, respectively). Duplicate wells in each direction were used for the test compound and control compound. The plate was incubated in CO2 incubator at 37° C., with 5% CO2/95% air and saturated humidity without shaking. The sample after 10-minute incubation was used as the To sample, and the sample after 90-minute incubation was used as the T90 sample. To and T90 samples were collected from the donor and receiver side of each well at the designed timepoint, mixed with the transport buffer and acetonitrile/MeOH (1:1, v/v) and the internal standard for LC/MS/MS analysis. All samples were vortexed and centrifuged at 4000 rpm at 4° C. for 15 minutes, diluted with pure water and stored at 4° C. before bioanalysis by LC/MS/MS.
Sample analysis. The concentrations of test compounds and control compounds in Caco-2 cells were quantitatively determined by LC/MS/MS method after protein precipitation.
Calculations. The apparent permeability (Papp, cm/s), efflux ratio (ER) and recovery parameters were calculated for Caco-2 drug transport assay using the following equations: […]
where VR is the solution volume in the receiver chamber (0.4 mL on the apical side, 1.2 mL on the basolateral side); Area is the surface area for the insert membrane, i.e., 0.3 cm^2 for the area of the monolayer; Time is incubation time, expressed in seconds, i. e., 5400 s (90 min) for the current experiment; Co is the initial concentration of test compound or peak area ratio of control compounds in the donor chamber (M); VD is the volume in the donor chambers (0.4 mL on the apical side, 1.2 mL on the basolateral side); CD and CR are the final concentrations of test compounds or peak area ratio of control compounds in donor and receiver chambers, respectively.
Compounds with Papp<1.0 are classified as low permeability, Papp between 1-10 are classified as medium permeability, and Papp>10 are classified as high permeability. An efflux ratio (ER)>2 indicates the compounds are potential substrates for intestinal cell efflux transporters.
Regarding `CCC(CC)C(=O)Nc1ncnn2c([C@]3(C#N)O[C@H](COC(=O)CC4CCC4)[C@@H](OC(=O)[C@@H](N)C(C)(C)C)[C@H]3O)ccc12` [Compound 50, (2R,3S,4R,5R)-5-cyano-2-((2-cyclobutylacetoxy)methyl)-5-(4-(2-ethylbutanamido)pyrrolo[2,1-f][1,2,4]triazin-7-yl)-4-hydroxytetrahydrofuran-3-yl (S)-2-amino-3,3-dimethylbutanoate], the Papp A→B (as a rule, how fast a substance crosses the layer from the apical side) at 90 min is 8.66 ×10⁻⁶ cm/s; the Papp B→A (commonly the apparent permeability from the basolateral to the apical side of a cell layer) at 90 min stood at 8.25 ×10⁻⁶ cm/s; the efflux ratio (commonly the permeability from basolateral to apical divided by that in the opposite direction, in the common usage) at 90 min turned out to be 0.95.

On to `CCCCC(=O)Nc1ncnn2c([C@]3(C#N)O[C@H](COC(=O)CC4CCCC4)[C@@H](OC(=O)[C@@H](N)C(C)(C)C)[C@H]3O)ccc12` [Compound 54, (2R,3S,4R,5R)-5-cyano-2-((2-cyclopentylacetoxy)methyl)-4-hydroxy-5-(4-pentanamidopyrrolo[2,1-f][1,2,4]triazin-7-yl)tetrahydrofuran-3-yl (S)-2-amino-3,3-dimethylbutanoate], for which the apical-to-basolateral permeability (Papp A→B) at 90 min came out at 3.41 ×10⁻⁶ cm/s, the Papp B→A at 90 min is 5.47 ×10⁻⁶ cm/s and the efflux ratio at 90 min came out at 1.6.

Turning to `CCCCCC(=O)Nc1ncnn2c([C@]3(C#N)O[C@H](COC(=O)CC4CCCC4)[C@@H](OC(=O)[C@@H](N)C(C)(C)C)[C@H]3O)ccc12` [Compound 55, (2R,3S,4R,5R)-5-cyano-2-((2-cyclopentylacetoxy)methyl)-5-(4-hexanamidopyrrolo[2,1-f][1,2,4]triazin-7-yl)-4-hydroxytetrahydrofuran-3-yl (S)-2-amino-3,3-dimethylbutanoate], the Papp A→B at 90 min stood at 2.74 ×10⁻⁶ cm/s, the Papp B→A at 90 min is 3.63 ×10⁻⁶ cm/s and the efflux ratio at 90 min amounted to 1.33.

Consider `CCC(CC)C(=O)Nc1ncnn2c([C@]3(C#N)O[C@H](COC(=O)CC4CCCC4)[C@@H](OC(=O)[C@@H](N)C(C)(C)C)[C@H]3O)ccc12` [Compound 56, (2R,3S,4R,5R)-5-cyano-2-((2-cyclopentylacetoxy)methyl)-5-(4-(2-ethylbutanamido)pyrrolo[2,1-f][1,2,4]triazin-7-yl)-4-hydroxytetrahydrofuran-3-yl (S)-2-amino-3,3-dimethylbutanoate], for which the Papp A→B at 90 min was 7.61 ×10⁻⁶ cm/s, the Papp B→A at 90 min came to 7.57 ×10⁻⁶ cm/s and the efflux ratio at 90 min turned out to be 0.99.

Turning to `COC(C)(C)C(=O)Nc1ncnn2c([C@]3(C#N)O[C@H](COC(=O)CC4CCCC4)[C@@H](OC(=O)[C@@H](N)C(C)(C)C)[C@H]3O)ccc12` [Compound 57, (2R,3S,4R,5R)-5-cyano-2-((2-cyclopentylacetoxy)methyl)-4-hydroxy-5-(4-(2-methoxy-2-methylpropanamido)pyrrolo[2,1-f][1,2,4]triazin-7-yl)tetrahydrofuran-3-yl (S)-2-amino-3,3-dimethylbutanoate], the Papp A→B at 90 min worked out at 16.4 ×10⁻⁶ cm/s, the Papp B→A at 90 min worked out at 10.1 ×10⁻⁶ cm/s and the efflux ratio at 90 min came out at 0.61.

For the compound `CCCCC(=O)Nc1ncnn2c([C@]3(C#N)O[C@H](COC(=O)CC4CCCCCC4)[C@@H](OC(=O)[C@@H](N)C(C)(C)C)[C@H]3O)ccc12` [Compound 61, (2R,3S,4R,5R)-5-cyano-2-((2-cycloheptylacetoxy)methyl)-4-hydroxy-5-(4-pentanamidopyrrolo[2,1-f][1,2,4]triazin-7-yl)tetrahydrofuran-3-yl (S)-2-amino-3,3-dimethylbutanoate], the Papp A→B at 90 min was found to be 1.07 ×10⁻⁶ cm/s, the Papp B→A at 90 min is 0.65 ×10⁻⁶ cm/s and the efflux ratio at 90 min worked out at 0.6.

Consider `CCC(CC)C(=O)Nc1ncnn2c([C@]3(C#N)O[C@H](COC(=O)CC4CCCCCC4)[C@@H](OC(=O)[C@@H](N)C(C)(C)C)[C@H]3O)ccc12` [Compound 62, (2R,3S,4R,5R)-5-cyano-2-((2-cycloheptylacetoxy)methyl)-5-(4-(2-ethylbutanamido)pyrrolo[2,1-f][1,2,4]triazin-7-yl)-4-hydroxytetrahydrofuran-3-yl (S)-2-amino-3,3-dimethylbutanoate], for which the Papp A→B at 90 min came to 1.4 ×10⁻⁶ cm/s, the Papp B→A at 90 min was 0.89 ×10⁻⁶ cm/s and the efflux ratio at 90 min stood at 0.64.

On to `COC(C)(C)C(=O)Nc1ncnn2c([C@]3(C#N)O[C@H](COC(=O)CC4CCCCCC4)[C@@H](OC(=O)[C@@H](N)C(C)(C)C)[C@H]3O)ccc12` [Compound 63, (2R,3S,4R,5R)-5-cyano-2-((2-cycloheptylacetoxy)methyl)-4-hydroxy-5-(4-(2-methoxy-2-methylpropanamido)pyrrolo[2,1-f][1,2,4]triazin-7-yl)tetrahydrofuran-3-yl (S)-2-amino-3,3-dimethylbutanoate], for which the Papp A→B at 90 min amounted to 4.01 ×10⁻⁶ cm/s, the Papp B→A at 90 min worked out at 2.79 ×10⁻⁶ cm/s and the efflux ratio at 90 min is 0.7.

As to `CCCCOC(=O)Nc1ncnn2c([C@]3(C#N)O[C@H](COC(=O)CC4CCCCCC4)[C@@H](OC(=O)[C@@H](N)C(C)(C)C)[C@H]3O)ccc12` [Compound 65, (2R,3S,4R,5R)-5-(4-((butoxycarbonyl)amino)pyrrolo[2,1-f][1,2,4]triazin-7-yl)-5-cyano-2-((2-cycloheptylacetoxy)methyl)-4-hydroxytetrahydrofuran-3-yl (S)-2-amino-3,3-dimethylbutanoate], the Papp A→B at 90 min was 0.79 ×10⁻⁶ cm/s, the Papp B→A at 90 min was determined as 0.5 ×10⁻⁶ cm/s and the efflux ratio at 90 min was 0.62.

`CCOC(C)(C)C(=O)Nc1ncnn2c([C@]3(C#N)O[C@H](COC(=O)CC4CCCC4)[C@@H](OC(=O)[C@@H](N)C(C)(C)C)[C@H]3O)ccc12` [Compound 66, (2R,3S,4R,5R)-5-cyano-2-((2-cyclopentylacetoxy)methyl)-5-(4-(2-ethoxy-2-methylpropanamido)pyrrolo[2,1-f][1,2,4]triazin-7-yl)-4-hydroxytetrahydrofuran-3-yl (S)-2-amino-3,3-dimethylbutanoate]: the Papp A→B at 90 min turned out to be 5.1 ×10⁻⁶ cm/s, the Papp B→A at 90 min stood at 5.79 ×10⁻⁶ cm/s and the efflux ratio at 90 min is 1.13.

Take `CCOC(C)(C)C(=O)Nc1ncnn2c([C@]3(C#N)O[C@H](COC(=O)CC4CCCCCC4)[C@@H](OC(=O)[C@@H](N)C(C)(C)C)[C@H]3O)ccc12` [Compound 67, (2R,3S,4R,5R)-5-cyano-2-((2-cycloheptylacetoxy)methyl)-5-(4-(2-ethoxy-2-methylpropanamido)pyrrolo[2,1-f][1,2,4]triazin-7-yl)-4-hydroxytetrahydrofuran-3-yl (S)-2-amino-3,3-dimethylbutanoate]: the Papp A→B at 90 min turned out to be 4.78 ×10⁻⁶ cm/s, the Papp B→A at 90 min is 2.54 ×10⁻⁶ cm/s and the efflux ratio at 90 min amounted to 0.53.

For `COC(C)(C)C(=O)Nc1ncnn2c([C@]3(C#N)O[C@H](COC(=O)CC4CCCCC4)[C@@H](OC(=O)[C@H](N)C(C)(C)C)[C@H]3O)ccc12` [Compound 68, (2R,3S,4R,5R)-5-cyano-2-((2-cyclohexylacetoxy)methyl)-4-hydroxy-5-(4-(2-methoxy-2-methylpropanamido)pyrrolo[2,1-f][1,2,4]triazin-7-yl)tetrahydrofuran-3-yl (R)-2-amino-3,3-dimethylbutanoate], the Papp A→B at 90 min came to 3.22 ×10⁻⁶ cm/s, the Papp B→A at 90 min worked out at 4.04 ×10⁻⁶ cm/s and the efflux ratio at 90 min came to 1.25.

As for `CCC(CC)C(=O)Nc1ncnn2c([C@]3(C#N)O[C@H](COC(=O)CC4CCCCC4)[C@@H](OC(=O)[C@H](N)C(C)(C)C)[C@H]3O)ccc12` [Compound 69, (2R,3S,4R,5R)-5-cyano-2-((2-cyclohexylacetoxy)methyl)-5-(4-(2-ethylbutanamido)pyrrolo[2,1-f][1,2,4]triazin-7-yl)-4-hydroxytetrahydrofuran-3-yl (R)-2-amino-3,3-dimethylbutanoate], the Papp A→B at 90 min was found to be 3.19 ×10⁻⁶ cm/s, the Papp B→A at 90 min was found to be 4.38 ×10⁻⁶ cm/s and the efflux ratio at 90 min was 1.37.

For the compound `COC(C)(C)C(=O)Nc1ncnn2c([C@]3(C#N)O[C@H](COC(=O)CC4CCCCCC4)[C@@H](OC(=O)[C@H](N)C(C)(C)C)[C@H]3O)ccc12` [Compound 70, (2R,3S,4R,5R)-5-cyano-2-((2-cycloheptylacetoxy)methyl)-4-hydroxy-5-(4-(2-methoxy-2-methylpropanamido)pyrrolo[2,1-f][1,2,4]triazin-7-yl)tetrahydrofuran-3-yl (R)-2-amino-3,3-dimethylbutanoate], the Papp A→B at 90 min amounted to 2.13 ×10⁻⁶ cm/s, the Papp B→A at 90 min was 2.2 ×10⁻⁶ cm/s and the efflux ratio at 90 min turned out to be 1.03.

The values are drawn from patent US20250228882A1, “ORALLY-BIOAVAILABLE NUCLEOSIDE ANALOGS” (Venatorx Pharmaceuticals, Inc., priority 2022, published 2025).
